Laboratory results taken from patent US5965539A, “Inhibitors of prenyl transferases” (Univeristy of Pittsburgh, priority 1996, dated 1999).

Key:
[1] = tested on: Calu-1 human lung carcinoma; conditions: 50 mg/kg once daily
Text: Calu-1 (Panel A) and NCI-H810 cells (Panel B) were purchased from ATCC and grown in McCoy's 5A medium in 10% FBS (Fetal Bovine Serum) and RPMI 1640 in 10% FBS, respectively. The cells were harvested, resuspended in PBS and injected s.c. into the right and left flank of 8 week old female nude mice (10^7 cells/flank). Nude mice (Harlan Sprague Dawley, Indianapolis, Ind.) were maintained in accordance with the Institutional Animal Care and Use Committee (IACUC) procedures and guidelines. On day 32 after s.c. implantation of tumors, animals were dosed i.p. with 0.2 ml once daily for 36 days. […] The tumor volumes were determined by measuring the length (l) and the width (w) and calculating the volume (V=(l)×(w)^2 /2). Data are presented as the average volume of eight tumors in each group for each cell line. Statistical significance between control and treated groups were evaluated by using student t test (*P<0.05).
In this model, tumors from two human lung carcinoma cell lines are implanted subcutaneously. One of these (Calu-1) harbors a K-Ras oncogenic mutation and has a deletion of the tumor suppressor gene p53. The other human lung carcinoma ([…]) has no Ras mutations.

[2] = target: T1, GGTase I (Homo sapiens, UniProt P53609); assay: GGTase I activity assay: transfer of [3H]geranylgeranyl to recombinant H-Ras-CVLL, Daudi 60,000xg supernatant; assay type: biochemical; conditions: Table 1; read-out: GGTase I IC50
T1 construct: FTase and GGTase I activities from 60,000×g supernatants of human Burkitt lymphoma (Daudi) cells; endogenous in cells; host or cells: human Burkitt lymphoma (Daudi) cells, 60,000xg supernatant (partially purified)
T1 sequence (P53609 whole entry): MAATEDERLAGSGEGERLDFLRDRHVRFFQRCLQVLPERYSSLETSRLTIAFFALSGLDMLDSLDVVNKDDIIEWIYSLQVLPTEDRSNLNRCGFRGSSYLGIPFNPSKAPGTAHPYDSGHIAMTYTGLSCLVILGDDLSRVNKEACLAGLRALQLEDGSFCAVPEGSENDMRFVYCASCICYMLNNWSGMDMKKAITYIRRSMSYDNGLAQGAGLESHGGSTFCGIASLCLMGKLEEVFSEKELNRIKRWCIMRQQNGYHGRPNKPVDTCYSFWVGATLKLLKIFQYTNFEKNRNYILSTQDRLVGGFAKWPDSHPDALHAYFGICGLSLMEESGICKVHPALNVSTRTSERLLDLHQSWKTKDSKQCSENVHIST

[3] = tested on: H-RasF transformed NIH 3T3 cells; conditions: 50 mg/kg once daily
Experimental: A. Antitumor efficacy was carried out as described in FIG. 3 except that animals were randomly assigned to four groups each of 4 mice each (2 tumors per mouse). […] B. Ras processing was carried out 5 hours after the last treatement on day 17. Tumors were extracted from the animals, tissumized, and lysed in lysis buffer as described in FIG. 1. Lysates (25 μg) were electrophoresed on a 12.5% SDS-PAGE and immunoblotted with anti-Ras antibody Y13-238 as described previously. The blots were then reprobed with anti-Rap1A antibody (Santa Cruze Biotechnologies, Santa Cruz, Calif.).
The tumor sizes at the end of 17 days were 2490 mm^3 for saline, 1793 mm^3 for 10 mg/kg, 1226 mm^3 for 50 mg/kg and 624 mm^3 for 100 mg/kg treated animals. […] Tumors from control animals contained only fully processed Ras which migrates faster in SDS-PAGE gels (FIG. 11B). […] Thus, the extent of tumor growth inhibition correlated with the extent of inhibition of Ras processing.

[4] = tested on: oncogenic K-Ras4B activation of MAP kinase; assay: Oncogenic K-Ras4B activation of MAP kinase, immunoblot; assay type: cell-based; conditions: 0-30 μM tested
Text: Equal amounts of protein were separated on a 15% SDS-PAGE, transferred to nitrocellulose, and immunoblotted using an anti-MAP kinase antibody (erk2, monoclonal, UB1, Lake Placid, N.Y.). Antibody reactions were visualized using peroxidase-conjugated donkey anti-mouse IgG (Jackson ImmunoResearch Laboratories Inc., West Grove, Pa.) and an enhanced chemiluminescence detection system (ECL, Amersham Corp.)

IC50 [2]: 1600 nM | lowest concentration inhibiting K-Ras4B MAP kinase activation [4]: 30 µM
SMILES: COC(=O)[C@H](CCSC)NC(=O)c1ccc(NC[C@@H](N)CS)cc1-c1ccccc1 [FTI-277, 4-N-[2(R)-Amino-3-mercaptopropyl]amino-2-phenylbenzoyl methionine methyl ester]
tumor growth of Calu-1 [1]: inhibited the growth of Calu-I cells to the same extent | tumor growth of H-RasF transformed NIH 3T3 cells [3]: inhibited tumor growth
